Columns and labels:
[1] = Stability test in liver microsomes (rat); type: in vitro ADME; conditions: rat liver microsomes 0.5 mg/mL, 1 μM compound
Description: (§1) Both male CD-1 mouse pooled liver microsomes and male SD rat pooled liver microsomes were purchased from BioreclamationIVT Corporation, USA.
(§2) The test compound stock solution was diluted with an organic solvent (usually a mixture of acetonitrile, methanol and water with various ratios, depending on the solubility of the compound, if necessary, 1 N hydrochloric acid or 1 N sodium hydroxide would be added to facilitate solubilization) to the 0.1 mM (the final concentration of the compound in the reaction system was 1 μM) and the concentration percentage of the organic solvents in the incubation system no more than 1% (wherein the percentage of DMSO was required to be no more than 0.1%). An appropriate amount of 100 mM NADP, 500 mM G-6-P and 100 Unit/mL G-6-PDH were mixed and diluted with ultrapure water (the final system contains 1 mM NADP, 5 mM G-6-P and 1 Unit/mL G-6-PDH), pre-incubated in a 37° C. water bath for 10 minutes and then placed on ice for use as a NADPH regeneration solution. 20 mg/mL liver microsomes solution and 200 mM phosphate buffer were mixed, and diluted with ultrapure water to give a liver microsomes solution containing 2.5 mg/mL liver microsomes (the final concentration of the reaction system is 0.5 mg/mL) and 50 mM phosphate buffer. The diluted liver microsomes solution was mixed with 0.1 mM compound solution, a mixture of 100 mM EDTA, 300 mM MgCl2 solution, 200 mM phosphate buffer (the final system was 3 mM MgCl2, 1 mM EDTA and 50 mM phosphate buffer) and water in an appropriate volume was added. Finally, the NADPH regeneration solution was added, then the reaction solution was placed in a 37° C. water bath to start the reaction (the reaction time was 30 minutes), and the reaction was stopped by adding the ice-cold acetonitrile reaction stopping solution containing the internal standard. The 0-minute sample was not incubated in a 37° C. water bath, and its difference from the 30-minute sample further lies in that the ice-cold acetonitrile reaction stopping solution containing the internal standard was added first, and then the NADPH regeneration solution was added. The sample added with the reaction stopping internal standard solution was vortexed and mixed well, and then centrifuged at 4400 rpm for 10 minutes. The supernatant was taken and diluted ten times with 50% methanol for LC-MS/MS analysis.
(§3) LC-MS/MS was used to determine the concentration of the compound in the sample. The percentage of the remaining compound after 30 minutes of incubation comparing with that in the 0-minute sample was calculated using the peak area ratio of the compound to the internal standard as an indicator, to evaluate the metabolic stability of the compound.

[2] = Stability test in liver microsomes (mouse); type: in vitro ADME; conditions: mouse liver microsomes 0.5 mg/mL, 1 μM compound
Description: as §1, §2, §3

[3] = system: idiopathic thrombocytopenic purpura induced by anti-mouse CD41 antibodies; assay: Idiopathic thrombocytopenic purpura induced by anti-CD41 antibody in mice, level of platelets; type: in vivo
Description: Male C57BL/6 mice were purchased from Shanghai Lingchang Biotechnology Co., Ltd. (certificate number 20180003011079, initial body weight of 18-20 grams), and were randomly grouped according to Table 4, with 8 mice in each group. […] When modeling, each mouse was intraperitoneally injected with 200 μL of PBS solution containing […] of anti-mouse CD41 antibodies (BD, Cat #: 553487, Lot #: 7026765).
Eight hours and twenty-four hours after modeling, the whole blood was collected and placed in a centrifuge tube coated with 10% citrate-phosphate-dextrose-adenine (CPDA), and the level of platelets (PLT) in the whole blood was measured by an XT-2000i (SYSMEX) automatic blood analyzer (Shanghai Laboratory Animal Research Centre Sino-British SIPPR/B & K Lab Animal Ltd).
The average level of platelets in peripheral blood was analyzed with Graphpad statistical software by one way ANOVA followed by Fisher LSD multiple comparison test, and the p value was calculated, wherein *p<0.05 indicated a statistically significant difference compared with the vehicle control group, **p<0.01 indicated a statistically extremely significant difference compared with the vehicle control group, and ##p<0.01 indicated a statistically extremely significant difference compared with the normal group.
RR %=(PLTtreatment−PLTmodel)/(PLTnaive−PLTmodel)×100%.

C[C@H]1CN(C2COC2)C[C@H](C)N1c1ccc(Nc2cc(-c3ccnc(-n4ccn5c6c(cc5c4=O)CC(C)(C)C6)c3CO)cn(C)c2=O)nc1 [Compound 1, 2-(5-((5-((2S,6S)-2,6-dimethyl-4-(oxetan-3-yl)piperazin-1-yl)pyridin-2-yl)amino)-3′-(hydroxymethyl)-1-methyl-6-oxo-1,6-dihydro-[3,4′-bipyridin]-2′-yl)-7,7-dimethyl-7,8-dihydro-2H-cyclopenta[4,5]pyrrolo[1,2-a]pyrazin-1(6H)-one]
RLM, percentage of the remaining compound after 30 minutes of incubation [1]: 87.9% | MLM, percentage of the remaining compound after 30 minutes of incubation [2]: 91.6% | recovery rate of platelets ([3]; 0.004 mg/kg oral single dose, 8 hours after modeling): 25% | recovery rate of platelets ([3]; 0.004 mg/kg oral single dose, 24 hours after modeling): 5% | recovery rate of platelets ([3]; 0.04 mg/kg oral single dose, 8 hours after modeling): 37% | recovery rate of platelets ([3]; 0.04 mg/kg oral single dose, 24 hours after modeling): 21% | recovery rate of platelets ([3]; 0.4 mg/kg oral single dose, 8 hours after modeling): 44% | recovery rate of platelets ([3]; 0.4 mg/kg oral single dose, 24 hours after modeling): 29% | recovery rate of platelets ([3]; 4 mg/kg oral single dose, 8 hours after modeling): 51% | recovery rate of platelets ([3]; 4 mg/kg oral single dose, 24 hours after modeling): 29% | minimum effective dose ([3]; single oral dose, platelets 8 hours after modeling): 0.04 mg/kg

— US20230382916A1, “HETEROARYL HETEROCYCLIC COMPOUNDS AND USES THEREOF” (HUTCHISON MEDIPHARMA LIMITED, priority 2020, published 2023)
